Measurements from patent US20080075662A1, “Novel Method for Analyzing Nucleic Acid Et Use Thereof for Evaluating the Degree of Mrna Editing of the Serotonin 5-Ht2c Receptor” (priority 2002, published 2008).
[I] = hypoxanthine (inosine)

Test system: oligonucleotide complementary to the probe with the exception of the base complementary to the dI at position 15
Test: Specificity of the array of probes: hybridization with a single-mismatch oligonucleotide
Assay type: binding

For “d(CAITICGTIITCCTITT) (DNA CANTNCGTNNTCCTNTT; DNA, [I] at 3, 5, 9, 10, 15, backbone not given here) [SEQ ID No. 32]”, the “hybridization with mismatched oligonucleotide” value (at the hybridization temperature chosen for all probes (between 61.1 and 54.13° C., preferably about 57.6° C.)) was “does not hybridize” and the Tm (duplex with oligonucleotide mismatched opposite the dI at position 15 of the probe) was 49.4 °C.
